Format in all cases: cell-based
Common to all, as to conditions: U-87MG ATCC

Assay [1] has as its target Prolyl endopeptidase FAP (Homo sapiens) (UniProt Q12884). The assay is described as follows: Inhibition of FAP in human U87MG cells using Suc-Gly-Pro-AMC as substrate at 1 uM incubated for 90 mins by fluorescence based assay relative to control.
Assay [2] has the same target. The assay is described as follows: Inhibition of FAP in human U87MG cells using Z-Gly-Pro-AMC as substrate at 1 uM incubated for 90 mins by fluorescence based assay relative to control.
Assay [3] has the same target. The assay is described as follows: Inhibition of FAP in human U87MG cells using Gly-Pro-AMC as substrate at 1 uM incubated for 90 mins by fluorescence based assay relative to control.

Sequence of Prolyl endopeptidase FAP (Homo sapiens) (Q12884 whole entry): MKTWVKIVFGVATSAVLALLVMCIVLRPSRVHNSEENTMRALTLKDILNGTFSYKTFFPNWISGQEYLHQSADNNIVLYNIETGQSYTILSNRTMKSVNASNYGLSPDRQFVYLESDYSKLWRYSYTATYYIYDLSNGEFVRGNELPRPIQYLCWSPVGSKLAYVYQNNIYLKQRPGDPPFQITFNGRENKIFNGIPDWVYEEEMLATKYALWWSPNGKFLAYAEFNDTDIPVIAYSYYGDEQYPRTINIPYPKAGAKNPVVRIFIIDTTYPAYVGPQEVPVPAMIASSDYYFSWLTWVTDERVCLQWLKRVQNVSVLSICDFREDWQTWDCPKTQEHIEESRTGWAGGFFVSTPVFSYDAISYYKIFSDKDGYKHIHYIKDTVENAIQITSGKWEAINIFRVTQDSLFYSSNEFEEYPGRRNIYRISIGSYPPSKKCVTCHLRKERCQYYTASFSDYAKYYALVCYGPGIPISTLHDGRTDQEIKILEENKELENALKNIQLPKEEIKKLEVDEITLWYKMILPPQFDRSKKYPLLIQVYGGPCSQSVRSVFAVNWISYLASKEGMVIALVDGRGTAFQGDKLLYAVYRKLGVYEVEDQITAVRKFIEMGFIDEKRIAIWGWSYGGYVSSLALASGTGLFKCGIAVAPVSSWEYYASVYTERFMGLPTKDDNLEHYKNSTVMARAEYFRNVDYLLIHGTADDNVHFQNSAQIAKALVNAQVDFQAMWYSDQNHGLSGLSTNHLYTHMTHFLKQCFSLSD

In general, inhibition refers to the relative decrease from the control value, in per cent. A higher inhibition goes with a strong effect. As for `N#C[C@@H]1CC(F)(F)CN1C(=O)CNC(=O)c1ccnc2ccccc12`, the inhibition in assay [1] stood at 91.9%; in assay [2] it was 30.7%; in assay [3] it was 17.5%.

Source of the values: ChEMBL document CHEMBL4622911, “A cell-based fluorescent assay for FAP inhibitor discovery” (Bioorg Med Chem Lett, 2020).
